pIC50: −log10 of the molar value.
How the values were obtained:
[1] = biological target: T1, high-affinity (BLT1) LTB4 receptor (Homo sapiens, UniProt Q15722); assay: FLIPR calcium release assay (LTB4-induced calcium mobilization); assay type: cell-based; settings: CHO-K1 cells expressing BLT1, 8 nM LTB4, n of 2
T1 construct: expressed in transfected cells
Procedure: hBLT1/CHO-K1 Stable Xcell Line Preparations: Human BLT1 receptor DNA (National Center for Biotechnology Information (NCBI), Reference Sequence NM_181657) is synthesized and cloned into expression vector pcDNA3.1/Hygro(+) (Invitrogen V87020). The cDNA expression vector construct is transfected into Chinese hamster ovary (CHO-K1) cells (American Type Culture Collection (ATCC) CCL-61) using Lipofectamine 2000 (Invitrogen) as transfection reagent. Cells are cultured in selective Dulbecco's Modified Eagle Medium (DMEM) containing 200 μg/mL Hygromycin, 24 hours post transfection. Single clones are isolated and screened for BLT1 expression and function using Western Blot analysis and Fluorometric Imaging Plate Reader (FLIPR®) calcium release assay.
Chinese hamster ovary (CHO-K1) cells stably expressing the high-affinity (BLT1) LTB4 receptor are seeded at 10,000 cells/well in a 96 well plate (Corning) in growth medium containing DMEM/F-12 (3:1) w/o phenol red (Invitrogen), 5% fetal bovine serum (FBS) (Hyclone), 20 mM HEPES (Invitrogen), 200 μg/mL Hygromycin B (Invitrogen) and 40 μg/mL L-Proline (Sigma). The plate is incubated for 22-24 h at 37° C. 5% CO2 then growth medium is replaced with 50 μL/well of test medium containing Roswell Park Memorial Institute (RPMI) RPMI-1640 w/o phenol red, 20 mM HEPES (both from Invitrogen), and 0.2% w/v Bovine Serum Albumin (Sigma). […]

[2] = tested on: CaCl2-induced abdominal aortic aneurysm; assay: CaCl2-induced AAA animal efficacy model, rats; assay type: in vivo, Sprague-Dawley rats; settings: 28 days, aortic lumenal perimeter
Excerpt: A targeted application of a calcium chloride solution to the mouse aorta induces vessel dilatation Chiou et al. J. Surg. Res. (2001), 99: 371-376; Lomgo et al. J. Clin. Invest. (2002), 110: 625-632. Two weeks after treatment, the vessel dilatation compared to the original vessel diameter becomes statistically significant, with up to 75% increase of aortic lumenal perimeter after 4 weeks. Calcium precipitates have been localized primarily within the elastic network of the media. Disruption of this structure by the calcium-elastic tissue complex weakens the vessel wall, contributing to aneurysm formation. This injury also serves as a proinflammatory stimulus, recruiting neutrophils, lymphocytes, monocytes, and mast cells.
Rats: Sprague-Dawley rats, 7-8 weeks of age, are acquired from Harlan, Indianapolis, Ind., USA
Aneurysm Induction Model: All procedures are performed in accordance with Eli Lilly and Company Institutional Animal Care and Use guidelines. Upon their arrival, animals have a one week acclimation period during which they have ad libitum access to standard rodent chow (Purina #2014) and house water. Following the acclimation period, animals are anesthetized with isoflurane, and a laparotomy is performed for the CaCl2-stimulated induction of the abdominal aortic aneurysm (AAA). […] Once isolated, the region of interest (ROI) of the abdominal aorta is wrapped with sterile, cotton gauze presoaked in a 0.25 M CaCl2 solution. In sham control animals, 0.9% saline is substituted for CaCl2. After 7 min, the gauze is removed and a second CaCl2 soaked gauze reapplied. Following the second 7 min period, the gauze is removed, the aorta rinsed with 0.9% saline and the abdomen closed Animals are returned to general housing at the end of their surgical day. Compound Administration: Mice receive test compound (Example 2) by oral gavage at a dose volume of 10 mL/kg of body weight, and rats receive test compound (Example 2) by oral gavage at a dose volume of 2.5 mL/kg of body weight. Compound administration is BID (a.m. and p.m.) with the first dose given one day prior to surgery (p.m.) and the second dose given the morning of surgery. […] The day after surgery, dosing continues BID for 28 days. […] Interior cross sectional lumenal perimeter measurements (mm) are collected at that point to assess efficacy and statistically analyzed with JMP® 7 software (Cary, N.C.). Statistical Analysis: Measurements of lumenal perimeter are expressed as mean values±SE. […]
In a similar study design, the ability of the compound of Example 2 to modulate aortic aneurysm dilation following CaCl2-induced injury is evaluated in Sprague-Dawley rats.

T1 sequence (Q15722 whole entry): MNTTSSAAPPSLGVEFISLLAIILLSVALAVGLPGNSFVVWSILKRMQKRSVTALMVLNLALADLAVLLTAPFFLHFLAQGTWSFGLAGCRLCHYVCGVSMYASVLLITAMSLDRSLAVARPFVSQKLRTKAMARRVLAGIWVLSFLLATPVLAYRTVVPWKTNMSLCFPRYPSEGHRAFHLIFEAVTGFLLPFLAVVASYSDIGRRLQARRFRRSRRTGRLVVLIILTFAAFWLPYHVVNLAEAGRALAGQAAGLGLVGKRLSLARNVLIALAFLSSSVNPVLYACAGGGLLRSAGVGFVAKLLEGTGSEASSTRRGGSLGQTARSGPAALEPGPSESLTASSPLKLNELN

With CCCc1c(NC(=O)CC(C)(C)C(=O)[O-])cccc1OCCCOc1cc(O)c(-c2ccc(F)cc2)cc1CC.[Na+] [Example 2, Sodium 4-[[3-[3-[2-ethyl-4-(4-fluorophenyl)-5-hydroxy-phenoxy]propoxy]-2-propyl-phenyl]amino]-2,2-dimethyl-4-oxo-butanoate] the Kb ([1]; read-out: inhibition of LTB4-induced calcium mobilization Kb) was 0.98 nM, the pIC50 ([1]; read-out: inhibition of LTB4-induced calcium mobilization relative IC50) was 8.19 and the “% Reduced (±S.E.) of AAA” value ([2]; 3 mg/kg b.i.d. oral gavage) was 46% ± 7. The “% Reduced (±S.E.) of AAA” value ([2]; 10 mg/kg b.i.d. oral gavage) was 69% ± 4, the “% Reduced (±S.E.) of AAA” value ([2]; 30 mg/kg b.i.d. oral gavage) was 85% ± 5 and the “% Reduced (±S.E.) of AAA” value ([2]; 60 mg/kg b.i.d. oral gavage) was 69% ± 10.
